Experimental data: patent US20240116933A1, “INDAZOLE AND PYRAZOLOPYRIDINE COMPOUNDS AS INHIBITORS OF NLRP3 INFLAMMASOME” (BioAge Labs, Inc., priority 2022, published 2024)
pIC50: −log10 of the molar value.

Target: T1, NLRP3 inflammasome (Homo sapiens, UniProt Q96P20)
T1 construct: endogenous in cells; host or cells: THP-1 cells (PMA-differentiated, LPS-primed, nigericin-stimulated)
Test: THP-1 Cell-Based NLRP3 Activation Assay
Conditions: THP-1 cells, PMA, 100 ng/mL LPS 3 hrs, 30 min pre-incubation with test compound, 10 μM nigericin 1 hr
Method: THP-1 cells are cultured in complete media (CM) until they reach logarithmic growth and achieve a viability >90%. CM is composed of RPMI-1640 (+Glutamax)/10% fetal bovine serum/55 μM β-mercaptoethanol/pen/strep. Cells are spun down and resuspended to 1,000,000 cells/mL in CM containing either 20 nM or 500 nM PMA. 150,000 cells […] are then added to each well of a 96-well TC plate and incubated for either 24 hr or 3 hr, respectively, in a standard cell culture incubator (37° C.; 5% CO2). After this incubation, the plate is tilted and media carefully removed. 200 μL of CM containing 100 ng/mL LPS is then added to the wells and the cells incubated an additional 3 hrs. The media is again removed and replaced with Opti-Mem medium containing pre-determined dilutions of test compounds in replicate wells. After a 30 min pre-incubation with test compound, 10 μM nigericin (final concentration) in Opti-Mem medium with the corresponding concentration of compound is added to the wells for an additional 1 hr. Positive control wells contain 10 μM nigericin in Opti-Mem in the absence of test compound, while negative control wells contain Opti-Mem only. […] Once supernatants are removed, the relative viability of adherent cells in the 96-well TC plate are determined using a CellTiter-Glo® luminescent cell viability assay (Promega).

T1 sequence (Q96P20 whole entry): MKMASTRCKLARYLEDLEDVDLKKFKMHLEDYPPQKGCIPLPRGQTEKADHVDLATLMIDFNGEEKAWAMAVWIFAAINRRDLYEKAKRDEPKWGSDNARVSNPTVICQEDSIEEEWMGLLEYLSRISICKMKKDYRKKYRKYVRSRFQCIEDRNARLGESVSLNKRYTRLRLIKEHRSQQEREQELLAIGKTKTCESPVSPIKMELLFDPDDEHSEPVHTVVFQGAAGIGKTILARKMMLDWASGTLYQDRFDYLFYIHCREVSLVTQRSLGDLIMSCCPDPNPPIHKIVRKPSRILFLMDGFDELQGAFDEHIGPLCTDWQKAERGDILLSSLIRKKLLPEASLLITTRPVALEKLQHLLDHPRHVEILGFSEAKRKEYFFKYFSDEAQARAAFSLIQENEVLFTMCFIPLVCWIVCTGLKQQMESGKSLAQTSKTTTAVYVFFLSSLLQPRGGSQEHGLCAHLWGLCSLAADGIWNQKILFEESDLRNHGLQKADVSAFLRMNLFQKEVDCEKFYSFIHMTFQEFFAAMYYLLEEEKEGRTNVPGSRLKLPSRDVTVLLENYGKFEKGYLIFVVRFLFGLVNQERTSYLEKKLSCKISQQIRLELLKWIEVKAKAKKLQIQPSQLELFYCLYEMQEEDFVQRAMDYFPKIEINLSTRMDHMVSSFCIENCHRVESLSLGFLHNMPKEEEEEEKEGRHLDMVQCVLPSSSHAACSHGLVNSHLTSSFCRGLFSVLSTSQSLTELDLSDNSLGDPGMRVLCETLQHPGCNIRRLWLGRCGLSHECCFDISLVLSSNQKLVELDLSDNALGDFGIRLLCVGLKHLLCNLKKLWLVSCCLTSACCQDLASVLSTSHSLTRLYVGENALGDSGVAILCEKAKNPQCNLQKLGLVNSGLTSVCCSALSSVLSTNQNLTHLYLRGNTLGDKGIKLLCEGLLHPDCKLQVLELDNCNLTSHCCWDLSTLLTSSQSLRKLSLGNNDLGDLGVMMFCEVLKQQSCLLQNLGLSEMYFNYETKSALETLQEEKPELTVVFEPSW

SMILES	pIC50
Cc1ncc(CNC(=O)c2cc(F)c(-c3cccc(Cl)c3)c(OC3CC3)c2)c2[nH]ncc12 [Compound 122]	> 6.00
CCOc1cc(C(=O)N(C)C(CC)c2cncc3cn[nH]c23)ccc1-c1cccc(F)c1 (centres unmarked) [Compound 117]	> 6.00
CN(Cc1cc(O)cc2cn[nH]c12)C(=O)c1cc(F)c(-c2cccc(C#N)c2)c(OC2CC2)c1 [Compound 111]	> 6.00
CN(Cc1cnc(CO)c2cn[nH]c12)C(=O)c1ccc(-c2cc(F)cc(F)c2)c(OC2COC2)c1 [Compound 155]	> 6.00
CN(Cc1cnc(CO)c2cn[nH]c12)C(=O)c1ccc(-c2cccs2)c(OC2CC2)c1 [Compound 085]	> 5.00
CCOc1cc(C(=O)N(C)Cc2cnc(C)c3cn[nH]c23)ccc1-c1cccs1 [Compound 170]	> 6.00
CN(Cc1cnc(CO)c2cn[nH]c12)C(=O)c1ccc(-c2cc(F)cc(Cl)c2)c(OC2COC2)c1 [Compound 152]	> 6.00
CCCOc1cc(C(=O)N(C)Cc2cnc(CO)c3cn[nH]c23)ccc1-c1cccc(F)c1 [Compound 147]	> 6.00
Cc1ncc(CN(C)C(=O)c2cc(F)c(-c3cccc(C#N)c3)c(OC3CC3)c2)c2[nH]ncc12 [Compound 065]	> 6.00
CCOc1cc(C(=O)N(C)[C@H](C)c2c(C)ncc3cn[nH]c23)ccc1-c1cccc(F)c1 [Compound 044]	> 4.30
Cc1ncc([C@H](C)N(C)C(=O)c2cc(F)c(-c3cccc(F)c3)c(OC3CC3)c2)c2[nH]ncc12 [Compound 035]	> 6.00
CCOc1cc(C(=O)N(C)Cc2cnc(C)c3cn[nH]c23)cc(CF)c1-c1cccc(F)c1 [Compound 125]	> 5.00
CN(Cc1c(CO)ncc2cn[nH]c12)C(=O)c1cc(F)c(-c2cccc(F)c2)c(OC2CC2)c1 [Compound 139]	> 6.00
CCOc1cc(C(=O)N(C)Cc2cnc(CO)c3cn[nH]c23)cc(F)c1-c1cc(C#N)cs1 [Compound 073]	> 6.00
Cc1ncc2cn[nH]c2c1CN(C)C(=O)c1cc(F)c(-c2cccc(Cl)c2)c(OC2CC2)c1 [Compound 068]	> 6.00
CN(Cc1cc(O)cc2cn[nH]c12)C(=O)c1cc(F)c(-c2cccc(F)c2)c(OC2CC2)c1 [Compound 099]	> 6.00
CCCOc1cc(C(=O)N(C)Cc2cnc(CO)c3cn[nH]c23)cc(F)c1-c1cc(F)cc(F)c1 [Compound 136]	> 6.00
CCOc1cc(C(=O)N(C)Cc2cnc(CO)c3cn[nH]c23)ccc1-c1nc(Cl)cs1 [Compound 157]	> 6.00
CCOc1cc(C(=O)N(C)Cc2cnc(C)c3cn[nH]c23)ccc1-c1cc(C#N)cs1 [Compound 153]	> 5.00
CCOc1cc(C(=O)N(C)[C@@H](C)c2cccc3cn[nH]c23)ccc1-c1cccc(F)c1 [Compound 059]	> 6.00
CCOc1cc(C(=O)N(C)[C@@H](C)c2cc(F)cc3cn[nH]c23)ccc1-c1cccc(F)c1 [Compound 042]	> 6.00
CCOc1cc(C(=O)N(C)Cc2c(C(C)O)ncc3cn[nH]c23)ccc1-c1cccc(F)c1 (centres unmarked) [Compound 135]	> 6.00
CCOc1cc(C(=O)N(C)Cc2cnc(C(C)O)c3cn[nH]c23)cc(F)c1-c1cccc(C#N)c1 (centres unmarked) [Compound 090]	> 5.00
